Assay type in all cases: functional
Experiment [1] deals with Mus musculus. Briefly: Analgesic activity in ICR mouse assessed as pain threshold variation at 25 umol/kg, po administered as single dose measured after 30 mins by tail flick test relative to control.
Experiment [2] concerns Mus musculus. Briefly: Analgesic activity in ICR mouse assessed as pain threshold variation at 25 umol/kg, po administered as single dose measured after 60 mins by tail flick test relative to control. A general note: Thermal pain tests record how soon the animal reacts.
In experiment [3] the test system is Mus musculus. The experiment is described as follows: Analgesic activity in ICR mouse assessed as pain threshold variation at 25 umol/kg, po administered as single dose measured after 90 mins by tail flick test relative to control.
The test system of experiment [4] is Mus musculus. Briefly: Analgesic activity in ICR mouse assessed as pain threshold variation at 25 umol/kg, po administered as single dose measured after 120 mins by tail flick test relative to control.
The subject of experiment [5] is Mus musculus. Briefly: Analgesic activity in ICR mouse assessed as pain threshold variation at 25 umol/kg, po administered as single dose measured after 150 mins by tail flick test relative to control.
The subject of experiment [6] is Mus musculus. Briefly: Analgesic activity in ICR mouse assessed as pain threshold variation at 25 umol/kg, po administered as single dose measured after 180 mins by tail flick test relative to control.

Structures are written as SMILES.

Regarding `O=C(CN(c1nc(Cl)nc2[nH]cnc12)C1CC1)N[C@@H](CO)C(=O)OCc1ccccc1`, the Activity was 31.88% in experiment [1]; 34.17% in experiment [2]; 34.53% in experiment [3]; 34.5% in experiment [4]; 27.88% in experiment [5]; 11.5% in experiment [6].
Turning to `CC(C)(C)OC(=O)NCCCC[C@H](NC(=O)CN(c1ncnc2c1ncn2C1CCCCO1)C1CC1)C(=O)OCc1ccccc1` (stereo not given in full), the Activity is recorded as 18.33% in experiment [1]; 32.66% in experiment [2]; 32.85% in experiment [3]; 28.39% in experiment [4]; 17.2% in experiment [5]; 10.06% in experiment [6].
As for `C[C@@H](O)[C@H](NC(=O)CN(c1nc(Cl)nc2[nH]cnc12)C1CC1)C(=O)OCc1ccccc1`, the Activity worked out at 21.86% in experiment [1]; 29.7% in experiment [2]; 29.88% in experiment [3]; 30.7% in experiment [4]; 12.76% in experiment [5]; 6.29% in experiment [6].
Consider `NC(=O)C[C@H](NC(=O)CN(c1nc(Cl)nc2[nH]cnc12)C1CC1)C(=O)O`, for which the Activity in experiment [1] was determined as 29.73%; in experiment [2], 43.14%; in experiment [3], 20.06%; in experiment [4] it was 17.03%; in experiment [5], 7.51%; in experiment [6], 5.66%.
Regarding `NC(=O)C[C@H](NC(=O)CN(c1ncnc2c1ncn2C1CCCCO1)C1CC1)C(=O)OCc1ccccc1` (stereo not given in full), the Activity was found to be 34.53% in experiment [1]; 30.54% in experiment [2]; 34.95% in experiment [3]; 29.15% in experiment [4]; 21.71% in experiment [5]; 15.45% in experiment [6].
As for `O=C(CN(c1nc(Cl)nc2[nH]cnc12)C1CC1)N[C@@H](Cc1ccc(O)cc1)C(=O)OCc1ccccc1`, the Activity in experiment [1] is recorded as 22.6%; in experiment [2] it was 22%; in experiment [3] it was 15.02%; in experiment [4] it was 13.65%; in experiment [5], 9.38%; in experiment [6], 4.33%.
As for `O=C(CN(c1nc(Cl)nc2[nH]cnc12)C1CC1)N[C@@H](Cc1ccc(O)cc1)C(=O)O`, the Activity stood at 46.22% in experiment [1]; 43.23% in experiment [2]; 33.92% in experiment [3]; 23.69% in experiment [4]; 13.71% in experiment [5]; 8.15% in experiment [6].
Consider `O=C(CN(c1nc(Cl)nc2[nH]cnc12)C1CC1)N[C@@H](Cc1ccccc1)C(=O)O`, for which the Activity was 29.37% in experiment [1]; 32.02% in experiment [2]; 26.55% in experiment [3]; 8.84% in experiment [4]; 6.09% in experiment [5]; 4.19% in experiment [6].
Consider `CC[C@H](C)[C@H](NC(=O)CN(c1nc(Cl)nc2[nH]cnc12)C1CC1)C(=O)OCc1ccccc1`, for which the Activity in experiment [1] turned out to be 41.39%; in experiment [2], 40.63%; in experiment [3] it was 36.28%; in experiment [4], 21.97%; in experiment [5], 6.9%; in experiment [6], 3.38%.
`O=C(CN(c1nc(Cl)nc2[nH]cnc12)C1CC1)N[C@@H](CCC(=O)OCc1ccccc1)C(=O)OCc1ccccc1`: the Activity in experiment [1] amounted to 52.8%; in experiment [2], 53.74%; in experiment [3], 50%; in experiment [4], 45.94%; in experiment [5], 44.46%; in experiment [6], 29.87%.
For the compound `O=C(CN(c1ncnc2c1ncn2C1CCCCO1)C1CC1)N[C@@H](CO)C(=O)OCc1ccccc1` (stereo not given in full), the Activity is on record as 27.77% in experiment [1]; 46.71% in experiment [2]; 32.17% in experiment [3]; 29.2% in experiment [4]; 18.32% in experiment [5]; 12.85% in experiment [6].
In the case of `N=C(N)NCCC[C@H](NC(=O)CN(c1ncnc2c1ncn2C1CCCCO1)C1CC1)C(=O)OCc1ccccc1` (stereo not given in full), the Activity in experiment [1] is 34.27%; in experiment [2], 52.35%; in experiment [3] it was 61.58%; in experiment [4], 38.16%; in experiment [5], 19.6%; in experiment [6], 7.97%.
As for `O=C(OCc1ccccc1)[C@@H]1CCCN1C(=O)CN(c1ncnc2c1ncn2C1CCCCO1)C1CC1` (stereo not given in full), the Activity in experiment [1] is recorded as 32.25%; in experiment [2], 36.73%; in experiment [3], 23.31%; in experiment [4] it was 17.49%; in experiment [5] it was 7.85%; in experiment [6] it was 6.63%.
Turning to `CC[C@H](C)[C@H](NC(=O)CN(c1ncnc2c1ncn2C1CCCCO1)C1CC1)C(=O)OCc1ccccc1` (stereo not given in full), the Activity in experiment [1] is 25.56%; in experiment [2], 27.35%; in experiment [3] it was 22.57%; in experiment [4] it was 20.42%; in experiment [5], 16.43%; in experiment [6] it was 9.15%.
In the case of `O=C(O)CNC(=O)CN(c1nc(Cl)nc2[nH]cnc12)C1CC1`, the Activity in experiment [1] amounted to 32.16%; in experiment [2], 38.89%; in experiment [3], 32.31%; in experiment [4], 19.81%; in experiment [5], 9.08%; in experiment [6], 8.11%.
On to `CC(C)C[C@H](NC(=O)CN(c1ncnc2c1ncn2C1CCCCO1)C1CC1)C(=O)OCc1ccccc1` (stereo not given in full), for which the Activity was determined as 26.2% in experiment [1]; 34.19% in experiment [2]; 28.22% in experiment [3]; 12.79% in experiment [4]; 6.47% in experiment [5]; 0.04% in experiment [6].
As for `O=C(CN(c1nc(Cl)nc2[nH]cnc12)C1CC1)N[C@@H](Cc1c[nH]c2ccccc12)C(=O)O`, the Activity in experiment [1] amounted to 17.55%; in experiment [2], 17.84%; in experiment [3], 18.3%; in experiment [4], 8.19%; in experiment [5], 5.27%; in experiment [6], 3.91%.
With `C[C@@H](O)[C@H](NC(=O)CN(c1ncnc2c1ncn2C1CCCCO1)C1CC1)C(=O)OCc1ccccc1` (stereo not given in full), the Activity is given as 23.61% in experiment [1]; 28.36% in experiment [2]; 23.38% in experiment [3]; 10.91% in experiment [4]; 6.53% in experiment [5]; 2.34% in experiment [6].
With `C[C@H](NC(=O)CN(c1ncnc2c1ncn2C1CCCCO1)C1CC1)C(=O)OCc1ccccc1` (stereo not given in full), the Activity is listed as 55.91% in experiment [1]; 53% in experiment [2]; 32.06% in experiment [3]; 25.3% in experiment [4]; 6.01% in experiment [5]; 5.96% in experiment [6].
For `O=C(O)CC[C@H](NC(=O)CN(c1nc(Cl)nc2[nH]cnc12)C1CC1)C(=O)O`, the Activity in experiment [1] came out at 26.81%; in experiment [2], 33.25%; in experiment [3], 44.7%; in experiment [4] it was 30.08%; in experiment [5] it was 29.46%; in experiment [6], 10.05%.
In the case of `CCOC(=O)CN(c1nc(Cl)nc2c1ncn2C1CCCCO1)C1CC1` (stereo not given), the Activity is given as 9.92% in experiment [1]; 22.64% in experiment [2]; 13.04% in experiment [3]; 14.91% in experiment [4]; 11.85% in experiment [5]; 5.33% in experiment [6].
For the compound `O=C(O)C[C@H](NC(=O)CN(c1nc(Cl)nc2[nH]cnc12)C1CC1)C(=O)O`, the Activity worked out at 19.85% in experiment [1]; 38.9% in experiment [2]; 25.14% in experiment [3]; 21.95% in experiment [4]; 11.63% in experiment [5]; 3.17% in experiment [6].
Regarding `O=C(CN(c1nc(Cl)nc2[nH]cnc12)C1CC1)N[C@@H](Cc1cnc[nH]1)C(=O)OCc1ccccc1`, the Activity in experiment [1] is recorded as 29.06%; in experiment [2], 26.6%; in experiment [3], 15.04%; in experiment [4], 10.15%; in experiment [5] it was 5.05%; in experiment [6] it was 4.18%.
In the case of `O=C(CN(c1ncnc2c1ncn2C1CCCCO1)C1CC1)N[C@@H](Cc1ccccc1)C(=O)OCc1ccccc1` (stereo not given in full), the Activity in experiment [1] turned out to be 39.2%; in experiment [2] it was 45.54%; in experiment [3], 37.73%; in experiment [4], 26.29%; in experiment [5] it was 3.49%; in experiment [6], 1.79%.
As for `O=C(CN(c1nc(Cl)nc2[nH]cnc12)C1CC1)N[C@@H](Cc1cnc[nH]1)C(=O)O`, the Activity in experiment [1] turned out to be 31.71%; in experiment [2] it was 27.68%; in experiment [3], 16.07%; in experiment [4] it was 10.66%; in experiment [5], 4.42%; in experiment [6], 3.39%.

The record behind these values is ChEMBL document CHEMBL1152546, “N-[2-chloro-9H-purin-6-yl]-N-cyclopropylglycylamino acids and derivatives: synthesis, evaluation as a class of novel analgesics, and 3D QSAR analysis” (2009).
